Where two headings read alike, the source gives them in different places.
Columns and labels:
[1] = tested on: urethral contractions (UC) induced by noradrenaline (NA); test: Effects on urethral contractions induced by noradrenaline injection in dogs after i.v. administration; format: in vivo, beagle dogs; conditions: for ED50: Canis lupus familiaris, iv, anaesthetised male beagle dogs, i.v., dose inhibiting by 50% the NA-induced increase in urethral pressure, read-out: UC ID50 NA; for Ratio (DBP/UC): ratio between the active doses DBP ED25 / UC ID50, dogs i.v.
Method: The experiments were performed according to the method of Imagawa et al. (J. Pharmacol. Methods 22, 103-111 (1989)), with substantial modifications, as follows: adult male beagle dogs, weighing 8-10 kg, were anaesthetised with pentobarbital sodium (30 mg/kg i.v. and 2 mg/kg/h i.v.), intubated and spontaneously ventilated with room air. In order to monitor systemic blood pressure (BP), a polyethylene (PE) catheter was introduced into the aortic arch through the left femoral artery. A collateral of the left femoral vein was cannulated for infusion of anaesthetic, and the right femoral vein was cannulated for administration of compounds. For intraarterial (i.a.) injection of noradrenaline (NA), a PE catheter was introduced into the lower portion of the abdominal aorta via the right external iliac artery. Through such procedure, NA was selectively distributed to the lower urinary tract. A paramedian vertical suprapubic incision extending from the base of the pelvis to the mid-abdominal region was made and the bladder and the prostate were exposed. The bladder was manually emptied with a syringe. Prostatic urethral pressure was monitored with a Mikro-tip cathe[…]) introduced into the bladder via the external urethral meatus, and withdrawn until the pressure transducer was positioned in the prostatic region of the urethra. A ligature was secured between the neck of the bladder and urethra to isolate the response of the latter and to avoid any interaction with the bladder. Another ligature was put around the Mikro-tip catheter at the external meatus, to secure the catheter itself. […] In order to compare the effects of the administered compound, dose/response curves (log dose transformation) were constructed by computing, at the peak effect, the percent decrease in diastolic blood pressure and percent inhibition of the increase in urethral pressure induced by NA.

[2] = tested on: diastolic blood pressure (DBP); test: Effects on blood pressure in dogs after i.v. administration; format: in vivo; conditions: anaesthetised male beagle dogs, dose inducing a 25% decrease in diastolic blood pressure
Method: The experiments were performed according to the method of Imagawa et al. (J. Pharmacol. Methods 22, 103-111 (1989)), with substantial modifications, as follows: adult male beagle dogs, weighing 8-10 kg, were anaesthetised with pentobarbital sodium (30 mg/kg i.v. and 2 mg/kg/h i.v.), intubated and spontaneously ventilated with room air. In order to monitor systemic blood pressure (BP), a polyethylene (PE) catheter was introduced into the aortic arch through the left femoral artery. A collateral of the left femoral vein was cannulated for infusion of anaesthetic, and the right femoral vein was cannulated for administration of compounds. For intraarterial (i.a.) injection of noradrenaline (NA), a PE catheter was introduced into the lower portion of the abdominal aorta via the right external iliac artery. Through such procedure, NA was selectively distributed to the lower urinary tract. A paramedian vertical suprapubic incision extending from the base of the pelvis to the mid-abdominal region was made and the bladder and the prostate were exposed. The bladder was manually emptied with a syringe. Prostatic urethral pressure was monitored with a Mikro-tip catheter (5F) introduced into the bladder via the external urethral meatus, and withdrawn until the pressure transducer was positioned in the prostatic region of the urethra. A ligature was secured between the neck of the bladder and urethra to isolate the response of the latter and to avoid any interaction with the bladder. Another ligature was put around the Mikro-tip catheter at the external meatus, to secure the catheter itself.
After a stabilising period following the surgical procedure (30 minutes), in which arterial and prostatic urethral pressures were continuously monitored as basal values, i.a. administration of NA was made at intervals of 20 minutes.
The doses of NA chosen were such to produce an increase of at least 100% in urethral pressure. The test compounds were administered i.v. in a cumulative manner with intervals of 15-20 minutes between administrations. […]

α1L adrenoceptor subtype = molecular target: T1, α1L adrenoceptor subtype (Oryctolagus cuniculus, UniProt O02824); test: Functional affinity for α1L-adrenoceptors: noradrenaline-induced contractions of rabbit aorta pretreated with chloroethylclonidine; format: biochemical; conditions: rabbit aorta rings pretreated with chloroethylclonidine, NA-induced contractions, Schild plot or apparent Kb
T1 sequence (O02824 1-466): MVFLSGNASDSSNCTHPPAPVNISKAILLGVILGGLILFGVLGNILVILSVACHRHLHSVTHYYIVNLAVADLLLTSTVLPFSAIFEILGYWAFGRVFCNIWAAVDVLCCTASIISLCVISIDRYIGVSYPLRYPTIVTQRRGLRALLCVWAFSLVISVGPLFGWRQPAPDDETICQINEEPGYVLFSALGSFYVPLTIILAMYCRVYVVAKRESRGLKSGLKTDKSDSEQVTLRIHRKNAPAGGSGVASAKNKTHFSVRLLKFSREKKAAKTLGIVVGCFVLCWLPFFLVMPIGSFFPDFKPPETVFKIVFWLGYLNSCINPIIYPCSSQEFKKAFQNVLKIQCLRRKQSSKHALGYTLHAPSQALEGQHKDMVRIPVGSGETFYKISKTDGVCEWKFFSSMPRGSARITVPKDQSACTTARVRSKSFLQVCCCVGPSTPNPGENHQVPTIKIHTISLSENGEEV
Method: Adult male New Zealand rabbits were sacrificed by cervical dislocation. The aorta was removed, placed in Krebs-Henseleit buffer and dissected free of adhering tissue. […] After washout of NA and re-equilibration of the tissue (45 minutes), the drug to be tested was added and, after 30 minutes, a second NA-cumulative-concentration/response curve constructed. Each antagonist concentration was tested using 2-3 aortic rings from different rabbits.

[3] = tested on: urethral contractions (UC) induced by noradrenaline (NA); conditions: dogs, i.v.; data from Leonardi et al., J Pharmacol Exp Ther 281, 1272-1283 (1997); cited from earlier work
[4] = tested on: diastolic blood pressure (DBP); conditions: dogs, i.v.; data from Leonardi et al., J Pharmacol Exp Ther 281, 1272-1283 (1997); cited from earlier work

With `O=C(NCCCN1CCN(c2ccccc2OCC(F)(F)F)CC1)c1csc2c(=O)cc(-c3ccccc3)oc12` [Example 5, 7-Oxo-5-phenyl-N-{3-[4-[2-(2,2,2-trifluoroethoxy)-phenyl]-1-piperazinyl]-propyl}-7H-thieno[3,2-b]pyran-3-carboxamide] as the compound, how does the ED50 [1] read?
The ED50 was 2.7 µg/kg.

And the “Ratio (DBP/UC)” value [1]?
Its value is greater than 370.

And the “DBP ED25” value [2]?
Its value is greater than 1000 µg/kg.

For `COc1ccccc1N1CCN(CCCNC(=O)c2cccc3c(=O)c(C)c(-c4ccccc4)oc23)CC1` [Compound A], which pKb (α1L adrenoceptor subtype) is on record?
Its pKb is 8.64.

What about the “UC ID50 NA” value [3] of the same compound?
Its value is 2.4 µg/kg.

And the “DBP ED25” value [4]?
The value was 243 µg/kg.

For `COc1ccc(Cl)cc1N1CCN(CCCNC(=O)c2csc3c(=O)cc(-c4ccccc4)oc23)CC1` [Example 1, N-{3-[4-(5-Chloro-2-methoxyphenyl)-1-piperazinyl]-propyl}-7-oxo-5-phenyl-7H-thieno[3,2-b]pyran-3-carboxamide], which ED50 [1] is on record?
The ED50 was 5.3 µg/kg.

What about the “Ratio (DBP/UC)” value [1] of the same compound?
Its value is 52.8.

And the “DBP ED25” value [2]?
The value was 280 µg/kg.

Which ED50 [1] does the source give for `COc1ccccc1N1CCN(CCCNC(=O)c2csc3c(=O)cc(-c4ccccc4)oc23)CC1` [Example 2, N-{3-[4-(2-Methoxyphenyl)-1-piperazinyl]-propyl}-7-oxo-5-phenyl-7H-thieno[3,2-b]pyran-3-carboxamide] here?
The ED50 was 1.8 µg/kg.

And the “Ratio (DBP/UC)” value [1]?
The value was 19.7.

What about the “DBP ED25” value [2] of the same compound?
Its value is 35.5 µg/kg.
